The METLIN SMRT retention time set (Domingo-Almenara et al. 2019)

Assay: gradient 5% acetonitrile 3 min, to 50% in 2 min, to 85% in 15 min, held 3 min, 100 µL/min
Details: column: Zorbax Extend-C18 2.1 x 50 mm; eluents: water / acetonitrile, 0.1% formic acid
Summary of the method: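 Using water and acetonitrile that each contained 0.1% formic acid, mixtures of ~100 pure standards were separated at 100 μL/min on a Zorbax Extend-C18 column (2.1 × 50 mm, 1.8 μm). The HPLC fed a quadrupole time-of-flight mass spectrometer working in positive and negative ionization mode, with dead and dwell volumes of 40 μL and 900 μL. Data were acquired over 3 months. Retention time was read from computationally picked adduct peaks after manual inspection of each.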

SMILES | RP-LC retention time
O=C(Cn1ncc2c(N3CCN(c4ccccn4)CC3)ncnc21)Nc1cc(F)ccc1F | 615 s
COC(=O)c1ccc(-c2nc3cnccn3c2Nc2c(C)cccc2C)cc1 | 914 s
CCN(Cc1ccccc1)S(=O)(=O)c1cc(-c2nc(C)cs2)sc1C | 1200 s
O=C1CC(CNS(=O)(=O)c2cccnc2)CN1c1ccc(Cl)cc1 (stereo not given) | 694 s
Cc1nnc2ccc(-c3noc(-c4cccc(F)c4)n3)cn12 | 881 s
CN1C2CC(OC(=O)C(CO)c3ccccc3)CC1C1OC12 (stereo not given) | 640 s
Cc1ccc(-c2cn3c(CC(=O)Nc4ccc(F)c(Cl)c4)csc3n2)cc1C | 678 s
Cn1c(=O)cc(SCC(=O)N2CCN(c3ccccn3)CC2)c2ccc(Cl)cc21 | 639 s
COc1ccc(Cl)cc1NC(=O)N1CCC2(CC1)NC(=O)c1ccccc1O2 | 1190 s
Cc1ccc(CSc2nc(CC(=O)Nc3ccc(-n4cnnn4)cc3)cs2)cc1 | 868 s
CC(NC(=O)C(=O)N1CCOCC1)C(c1cccs1)N1CCN(Cc2ccccc2)CC1 (stereo not given) | 600 s
COC(=O)c1cnn(-c2ccc(C)cc2)c1N | 704 s
COc1cc(O)cc(O)c1C(=O)/C=C/c1ccccc1 | 903 s
Cc1oc(-c2ccc(C(=O)N3CCN(C)CC3)cc2)nc1CN1CCc2ccccc21 | 675 s
O=C(NC1CC1)C1COC2(CCN(C(=O)c3cccc(Cl)c3)CC2)N1C(=O)c1cccc(F)c1 (stereo not given) | 738 s
NC(=O)CSc1nnc(CCc2nc3ccccc3s2)o1 | 633 s
N#Cc1ccc(C(=O)NC2CCN(C(=O)C3CC3)C2)cc1 (stereo not given) | 629 s
O=C(Nc1nc2ccccc2s1)C1CCN(C(=O)c2ccc(F)cc2)CC1 | 808 s
COc1ccc(Cl)cc1NC(=O)C1CC(=O)N(c2ccc3c(c2)CCN3C(C)=O)C1 (stereo not given) | 774 s
c1ccc2c3c([nH]c2c1)CNCC3 | 703 s
CCN(CC)c1ccc(C(=O)N2CCc3nc[nH]c3C2)cc1 | 550 s
CN1CCN(C(=O)CCCN2C(=O)CCn3nc(-c4cn(C)c5ccccc45)cc32)CC1 | 571 s
Cc1ccc(C)c(-c2cc3c(=O)n(Cc4nc(-c5ccc(F)cc5)no4)ncn3n2)c1 | 1210 s

SMILES | RP-LC retention time
Cc1ccc(Cn2nnc(C(=O)NCc3ccco3)c2-n2cccc2)cc1 | 1010 s
Cc1cc(C)cc(-n2c(CN3CCN(C(=O)Nc4ccc5c(c4)OCO5)CC3)nc3cccnc32)c1 | 676 s
N#Cc1cccc(-c2cn3c(n2)N(C(=O)c2cccnc2)CCC3)c1 | 641 s
CC(=O)N1CCC(N2C(=O)C3(CCCC3)C2c2scnc2C)CC1 (stereo not given) | 664 s
O=C(C1CCC1)N1CCCC1c1nc(C2CCOCC2)no1 (stereo not given) | 624 s
O=C(NCC1CCCO1)N1CCN(c2nc3ccccc3n(Cc3ccccc3)c2=O)CC1 (stereo not given) | 850 s
Cc1ccc(-c2ccc(=O)n(Cc3noc(C(=O)NCCc4ccc(S(N)(=O)=O)cc4)n3)n2)cc1 | 781 s
Cc1cc(S(=O)(=O)NCC2CCN(C(=O)NC(C)(C)C)CC2)c(Cl)cc1Cl | 927 s
Cc1nnc(N2CCCC(C(=O)N3CCN(c4ccccn4)CC3)C2)c2nn(-c3ccccc3)c(C)c12 (stereo not given) | 584 s
COc1ccc(NC(=O)C2CCN(S(=O)(=O)c3cc(C(=O)N4CCCC4)n(C)c3)CC2)cc1 | 729 s
O=C(NC1CCCC1)N1CCC[C@H]1c1nc(-c2ccccc2)n[nH]1 | 697 s
COc1ccc(Cl)cc1NC(=O)NC1CCN(c2ccc(C)cc2)C1=O (stereo not given) | 931 s
CC(C)CC(=O)N1CCc2c([nH]c3ccccc23)C12C(=O)N(C)c1ccc(Br)cc12 (stereo not given) | 1040 s
CN(C)C(CNC(=O)c1cc(-c2ccccc2)on1)c1ccco1 (stereo not given) | 653 s
CC(C)c1ccc2c(c1)-c1ccccc1S(=O)(=O)N2CC(=O)NCc1cccnc1 | 711 s
O=C(Cc1ccccc1Cl)N1CCc2nc(-c3ccc(Cl)cc3)ncc2C1 | 1140 s
CCCCN(C)C(=O)CCC(=O)Nc1ccc2nc(N3CCN(C)CC3)cc(C)c2c1 | 546 s
CCC(C(=O)N1CCOCC1)n1c2ccccc2c2cnn(C)c(=O)c21 (stereo not given) | 764 s
COCC(=O)Nc1cnc(N2CCCCC2)nc1 | 683 s
CCOC(=O)COC(=O)c1cn(-c2ccc(CC)cc2)c(=O)c2ccccc12 | 737 s
CCC(C)C(=O)N1CC(N(Cc2ccncc2)CC(C)C)C1 (stereo not given) | 635 s
Cc1ccc(Cn2c(CN3CCC(C(=O)NC(C)C)CC3)cc3ccccc32)cc1 | 747 s
